Source: ChEMBL document CHEMBL1201862, “PubChem BioAssay data set” (2004)
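Test compounds were applied to cells in 96-well plates for 48 hours at 5 doses. The concentration for 50% growth inhibition is given as GI50.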 Active and inactive are the calls of the source. No stated cut-off is given here; in the data, active = GI50 up to about 1.1 µM and inactive = higher.

Legend:
Test in all cases: DTP human tumour cell line panel, 48 h
[1] = test system: TK-10
[2] = test system: OVCAR-3
[3] = test system: RXF 393
[4] = test system: HOP-62
[5] = test system: SNB-75
[6] = test system: SK-MEL-28
[7] = test system: HCT-15
[8] = test system: UACC-62
[9] = test system: LOX IMVI
[10] = test system: Malme-3M
[11] = test system: SF-268
[12] = test system: SN12C
[13] = test system: A498
[14] = test system: 786-0
[15] = test system: RPMI-8226
[16] = test system: HL-60

| Structure (SMILES) | GI50 [1] | GI50 [2] | GI50 [3] | GI50 [4] | GI50 [5] | GI50 [6] | GI50 [7] [µM] | GI50 [8] | GI50 [9] | GI50 [10] | GI50 [11] | GI50 [12] | GI50 [13] | GI50 [14] | GI50 [15] | GI50 [16] |
| --- | --- | --- | --- | --- | --- | --- | --- | --- | --- | --- | --- | --- | --- | --- | --- | --- |
| CC(=O)NC(CCCN)C(=O)NCc1ccccc1 (stereo not drawn) | > 100 µM (inactive) | > 100 µM (inactive) | > 100 µM (inactive) | > 100 µM (inactive) | > 100 µM (inactive) | > 100 µM (inactive) | > 100 | > 100 µM (inactive) | > 100 µM (inactive) | > 100 µM (inactive) | > 100 µM (inactive) | > 100 µM (inactive) | > 100 µM (inactive) | > 100 µM (inactive) | > 100 µM (inactive) | – |
| Cc1ccc([N+](=O)[O-])cc1NC(=O)c1cccc([N+](=O)[O-])c1O | 31.2 µM (inactive) | 7.24 µM (inactive) | 3.99 µM (inactive) | 7.96 µM (inactive) | 13.4 µM (inactive) | 11.5 µM (inactive) | 25 | 3.85 µM (inactive) | 26.6 µM (inactive) | 5.09 µM (inactive) | 14.6 µM (inactive) | 23.8 µM (inactive) | 11.3 µM (inactive) | 28.9 µM (inactive) | 4.73 µM (inactive) | 5.01 µM (inactive) |
| COc1ccc(C(=O)Nc2ccn(CCOC(=O)c3ccc(OC)cc3)c(=O)n2)cc1 | > 100 µM (inactive) | > 100 µM (inactive) | 20.1 µM (inactive) | 51.1 µM (inactive) | > 100 µM (inactive) | > 100 µM (inactive) | > 100 | > 100 µM (inactive) | > 100 µM (inactive) | > 100 µM (inactive) | 43.9 µM (inactive) | > 100 µM (inactive) | 93.3 µM (inactive) | > 100 µM (inactive) | > 100 µM (inactive) | > 100 µM (inactive) |
| CC(C)C1COC(C(C)(C)C2=N[C@@H](C(C)C)CO2)=N1 (stereo partly drawn) | > 100 µM (inactive) | > 100 µM (inactive) | > 100 µM (inactive) | > 100 µM (inactive) | > 100 µM (inactive) | > 100 µM (inactive) | > 100 | > 100 µM (inactive) | > 100 µM (inactive) | > 100 µM (inactive) | > 100 µM (inactive) | > 100 µM (inactive) | – | > 100 µM (inactive) | > 100 µM (inactive) | > 100 µM (inactive) |
| CC1=NN(C(=O)c2cc(Cl)cc([N+](=O)[O-])c2)C(=O)C1/N=N/c1ccccc1C(=O)O (stereo not drawn) | > 100 µM (inactive) | > 100 µM (inactive) | > 100 µM (inactive) | – | 75.2 µM (inactive) | > 100 µM (inactive) | – | 69.5 µM (inactive) | – | > 100 µM (inactive) | > 100 µM (inactive) | > 100 µM (inactive) | > 100 µM (inactive) | > 100 µM (inactive) | > 100 µM (inactive) | > 100 µM (inactive) |
| CC1=C(C(=O)Nc2cc(F)c(F)cc2F)C(c2ccc(N(C)C)cc2)C(C(=O)Nc2cc(F)c(F)cc2F)=C(C)N1 | 32.7 µM (inactive) | 0.432 µM (active) | 17.1 µM (inactive) | 21.1 µM (inactive) | 21.5 µM (inactive) | 30.5 µM (inactive) | – | – | 31.8 µM (inactive) | 32.7 µM (inactive) | 27 µM (inactive) | 30.1 µM (inactive) | 19.1 µM (inactive) | 27.1 µM (inactive) | 17.2 µM (inactive) | 13.9 µM (inactive) |
| CC1CCc2c(sc3ncnc(N/N=C/c4ccc(Cl)cc4)c23)C1 (stereo not drawn) | 38.2 µM (inactive) | 35.4 µM (inactive) | 29.6 µM (inactive) | 41.9 µM (inactive) | 78.9 µM (inactive) | 32.3 µM (inactive) | 32.3 | 31.1 µM (inactive) | 22.1 µM (inactive) | > 100 µM (inactive) | 25.1 µM (inactive) | 33.4 µM (inactive) | – | 34.7 µM (inactive) | 29.9 µM (inactive) | 19.2 µM (inactive) |
| CCNC(=O)/C=C/CCC#Cc1ccc(-c2ccc(-c3cccs3)s2)s1 | > 100 µM (inactive) | > 100 µM (inactive) | > 100 µM (inactive) | > 100 µM (inactive) | > 100 µM (inactive) | – | > 100 | 2.9 µM (inactive) | > 100 µM (inactive) | 3.52 µM (inactive) | > 100 µM (inactive) | – | – | > 100 µM (inactive) | > 100 µM (inactive) | > 100 µM (inactive) |
| O=C(O)CCSC(=S)Nc1cccc(F)c1 | 43.4 µM (inactive) | 33.7 µM (inactive) | 30.5 µM (inactive) | 56.4 µM (inactive) | 82 µM (inactive) | 28 µM (inactive) | 27 | 13.4 µM (inactive) | 13.9 µM (inactive) | 48.6 µM (inactive) | 45.6 µM (inactive) | 60.8 µM (inactive) | 30.4 µM (inactive) | > 100 µM (inactive) | 31.6 µM (inactive) | – |
| C=CCN1C(=O)CS/C1=N\NC(=O)c1c(C)nc2sccn12 | > 100 µM (inactive) | > 100 µM (inactive) | > 100 µM (inactive) | > 100 µM (inactive) | – | > 100 µM (inactive) | > 100 | > 100 µM (inactive) | > 100 µM (inactive) | > 100 µM (inactive) | > 100 µM (inactive) | > 100 µM (inactive) | – | > 100 µM (inactive) | > 100 µM (inactive) | > 100 µM (inactive) |
| CSc1n/c(=N\c2ccccc2)sn1-c1ccccc1 | 26.7 µM (inactive) | 18 µM (inactive) | 16.8 µM (inactive) | 15.6 µM (inactive) | 27.2 µM (inactive) | 14.1 µM (inactive) | 13.8 | 4.76 µM (inactive) | 16.6 µM (inactive) | 24.3 µM (inactive) | 19.6 µM (inactive) | 15.6 µM (inactive) | 18.7 µM (inactive) | 16.6 µM (inactive) | 5.45 µM (inactive) | 3.74 µM (inactive) |
| O=C(Nc1c(-c2nc3ccccc3[nH]2)sc(=S)n1-c1ccccc1)c1ccccc1 | > 100 µM (inactive) | 96.8 µM (inactive) | > 100 µM (inactive) | 56.1 µM (inactive) | 29.4 µM (inactive) | > 100 µM (inactive) | > 100 | > 100 µM (inactive) | 97.1 µM (inactive) | > 100 µM (inactive) | > 100 µM (inactive) | 74 µM (inactive) | > 100 µM (inactive) | 91.2 µM (inactive) | > 100 µM (inactive) | > 100 µM (inactive) |
| CN(C)CCNC(=O)c1cccc2ccc(-c3cccnc3)nc12 | 2.48 µM (inactive) | 6.27 µM (inactive) | 6.32 µM (inactive) | 5.57 µM (inactive) | 10.6 µM (inactive) | 11.6 µM (inactive) | 4.06 | 4.73 µM (inactive) | 3.8 µM (inactive) | 5.41 µM (inactive) | 5.65 µM (inactive) | 3.61 µM (inactive) | 1.9 µM (inactive) | 5.89 µM (inactive) | – | 3.71 µM (inactive) |
| CSc1nc2c(nc(N)n2C2OC(CO)C(O)C(O)C2O)c(=O)n1C (stereo not drawn) | > 100 µM (inactive) | > 100 µM (inactive) | > 100 µM (inactive) | > 100 µM (inactive) | > 100 µM (inactive) | > 100 µM (inactive) | – | > 100 µM (inactive) | > 100 µM (inactive) | > 100 µM (inactive) | > 100 µM (inactive) | > 100 µM (inactive) | > 100 µM (inactive) | > 100 µM (inactive) | – | > 100 µM (inactive) |
| CC(=O)OCC1OC(N2C(=O)/C(=N\NC(N)=S)c3ccc([N+](=O)[O-])cc32)C(OC(C)=O)C1OC(C)=O (stereo not drawn) | > 100 µM (inactive) | 26.4 µM (inactive) | 20.2 µM (inactive) | 31.3 µM (inactive) | 18.6 µM (inactive) | 29.2 µM (inactive) | 76 | 13.9 µM (inactive) | 19.1 µM (inactive) | 33.7 µM (inactive) | 30.8 µM (inactive) | 36.1 µM (inactive) | – | 19.8 µM (inactive) | 27.9 µM (inactive) | 16.6 µM (inactive) |
| COc1cccc2nc3cc(C)c(C)cc3nc12 | > 100 µM (inactive) | > 100 µM (inactive) | > 100 µM (inactive) | > 100 µM (inactive) | > 100 µM (inactive) | > 100 µM (inactive) | > 100 | > 100 µM (inactive) | 96.8 µM (inactive) | > 100 µM (inactive) | > 100 µM (inactive) | > 100 µM (inactive) | > 100 µM (inactive) | > 100 µM (inactive) | – | > 100 µM (inactive) |
| CC1(CO)C(=O)OC12CCCCC2 (stereo not drawn) | > 100 µM (inactive) | > 100 µM (inactive) | – | > 100 µM (inactive) | 84.5 µM (inactive) | > 100 µM (inactive) | – | > 100 µM (inactive) | > 100 µM (inactive) | > 100 µM (inactive) | > 100 µM (inactive) | > 100 µM (inactive) | 44.4 µM (inactive) | > 100 µM (inactive) | > 100 µM (inactive) | > 100 µM (inactive) |
| CC(=O)O[C@]12CCCCCCC1C1(O)C(O)CCC[C@H]12 (stereo partly drawn) | > 100 µM (inactive) | – | > 100 µM (inactive) | > 100 µM (inactive) | > 100 µM (inactive) | > 100 µM (inactive) | > 100 | > 100 µM (inactive) | > 100 µM (inactive) | > 100 µM (inactive) | > 100 µM (inactive) | > 100 µM (inactive) | – | > 100 µM (inactive) | > 100 µM (inactive) | > 10 µM (inactive) |
| O=C1N2Cc3c4ccc5c3CN3C(=O)N6Cc7c(ccc(c7CN1C6(c1ccccc1)C23c1ccccc1)OCCOCCOc1cc(Br)c(Br)cc1OCCOCCO4)OCCOCCOc1cc(Br)c(Br)cc1OCCOCCO5 (stereo not drawn) | 65.9 µM (inactive) | > 100 µM (inactive) | > 100 µM (inactive) | 40.8 µM (inactive) | 38.2 µM (inactive) | > 100 µM (inactive) | 25.4 | > 100 µM (inactive) | – | 75.5 µM (inactive) | > 100 µM (inactive) | 39.3 µM (inactive) | – | > 100 µM (inactive) | > 100 µM (inactive) | – |
